# Ends that are not written are not given here.
# Legend:
# [1] = qualitative statement in background; comparison of the 44, 40 and 37 amino acid forms and the free acid; cited from earlier work
# [2] = system: rat pituitary cell cultures; assay: In vitro bioassay in rat pituitary cell cultures with a specific rat growth hormone radioimmunoassay; assay type: cell-based; conditions: relative potency; rat pituitary in vitro bioassay in which the potency of GRF(1-44)-NH2 standard is 1.00; enzymatically prepared product of Example 1
# Description: All amino acid derivatives were of the L-configuration and purchased from Bachem (Torrance, Calif.). Porcine trypsin (Sigma, Type IX) was assayed against N^α benzoyl-L-arginine ethyl ester (BAEE) and the specific activity determined to be 1.85×10^4 U/mg. It was treated with N-tosyl-L-phenylalaninechloromethylketone (TPCK) [G. Schoellman and E. Shaw, Biochemistry, 2, 252 ([…])] and dialyzed extensively against distilled water and lyophilized to give 2.02×10^4 U/mg. N,N-Dimethylacetamide (Kodak, Spectro Grade) and 1,4-butanediol (Sigma, Gold Label) were dried over 3A sieves. Tryptic digests were carried out in solutions of the peptide (1 mg/mL) and bovine trypsin (Millipore, 0.1 mg/mL) in 0.5M NH4 HCO3 (pH 8.0) for 20 hours. All pH measurements were made with a glass electrode. In vitro bioassays were done in rat pituitary cell cultures and using a specific rat growth hormone radioimmunoassay as previously described (P. Brazeau et al., Proc. Natl. Acad. Sci. USA, 79, 7909 (1982). GRF(1-43)-OH was prepared by solid-phase synthesis as follows:
# The final yield of GRF(1-44)-NH2 was 1.95 mg ([…], 37%). FAB-MS: (M+H)^+ Calc: 5040.7, Found: 5040.5. Amino Acid Anal (6M HCl; 110° C., 72 h.): Asp, 4.12(4); Thr, 0.97(1); Ser, 3.65(4); Glu, 7.54(7); Gly, 2.99(3); Ala, 5.27(5); Val, 1.04(1); Met, 0.92(1); Ile, 2.01(2); Leu, 5.13(5); Tyr, 1.87(2); Phe, 0.91(1); Lys, 2.03(2); Arg, 5.54(6). […]
Substance,Level of activity / potency among GRF forms [1],In vitro biological potency [2]
"GRF(1-40)-OH (YADAIFTNSYRKVLGQLSARKLLQDIMSRQQGESNQERGA-OH; UniProt P01286 32-71, looked up, fragment) [free acid form of Growth Hormone Releasing Factor mentioned in the background, reference compound]",substantially lower level of activity,–
GRF(1-44)-NH2,full intrinsic activity and highest potency,0.92±0.22

# From patent US5563044A, “Process for the enzymatic preparation of GRF(1-44)NH2” (Hoffmann-La Roche Inc., priority 1995, dated 1996)
